Starred links: 1 amine or outer side, 2 acyl side, 3 side chain; linkers in the order of their positions; H or OH if unused. Positions of bridges follow the written chain, without caps; N, C: chain ends. Non-standard residues stand in square brackets, D forms with d. Residues, ends and D or L forms follow the SMILES beside them. Groups on a side chain read outwards from the residue. Chains are numbered I, II in the order given. *: point of attachment. C20 diacid = O=C(O)CCCCCCCCCCCCCCCCCCC(=O)*; C18 diacid = O=C(O)CCCCCCCCCCCCCCCCC(=O)*; γGlu = O=C(O)[C@H](CCC(=O)[*:2])N[*:1]; NMeY = CN[C@@H](Cc1ccc(O)cc1)C(=O)O; AEEA = NCCOCCOCC(=O)O; Aib = CC(C)(N)C(=O)O
Assay: Solubility in phosphate buffer pH 7.4
Outline: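 Solubility at pH 7.4 determined by stepwise addition of 200 mM phosphate buffer in 100 μL increments to 3 mg peptide, mixing briefly each time, until no insoluble material remained, then measured by liquid chromatography.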

[1] = pH 7.4, aqueous buffer, pH 7.4 Phosphate Buffer - Solubility, 200 mM Phosphate buffer pH 7.4
[2] = pH 7.4, solubility in phosphate buffer at pH 7.4, 200 mM phosphate buffer pH 7.4

Structure (SMILES) | solubility [1] [mg/mL] | solubility [2] [mg/mL] | solubility (pH 7.4) [mg/mL] | solubility (pH 7.4, aqueous buffer) [mg/mL]
CC[C@H](C)[C@H](NC(=O)[C@H](Cc1ccccc1)NC(=O)[C@@H](NC(=O)CNC(=O)[C@H](CCC(=O)O)NC(=O)C(C)(C)NC(=O)[C@H](Cc1ccc(O)cc1)NC)[C@@H](C)O)C(=O)N[C@@H](CO)C(=O)N[C@@H](CC(=O)O)C(=O)N[C@@H](Cc1ccc(O)cc1)C(=O)N[C@@H](CO)C(=O)N[C@H](C(=O)NC(C)(C)C(=O)N[C@@H](CC(C)C)C(=O)N[C@@H](CC(=O)O)C(=O)N[C@@H](CCCNC(=N)N)C(=O)NC(C)(C)C(=O)N[C@@H](CCCCNC(=O)COCCOCCNC(=O)COCCOCCNC(=O)CC[C@H](NC(=O)CC[C@H](NC(=O)CCCCCCCCCCCCCCCCC(=O)O)C(=O)O)C(=O)O)C(=O)N[C@@H](CCC(N)=O)C(=O)NC(C)(C)C(=O)N[C@@H](CC(N)=O)C(=O)N[C@@H](Cc1ccccc1)C(=O)N[C@H](C(=O)N[C@@H](CC(N)=O)C(=O)N[C@@H](Cc1c[nH]c2ccccc12)C(=O)N[C@@H](CC(C)C)C(=O)N[C@@H](CC(C)C)C(=O)N[C@@H](C)C(=O)N[C@@H](CCC(N)=O)C(=O)N[C@@H](CO)C(=O)N1CCC[C@H]1C(=O)N[C@@H](CO)C(=O)N[C@@H](CO)C(=O)NCC(=O)N[C@@H](C)C(=O)N1CCC[C@H]1C(=O)N1CCC[C@H]1C(=O)N1CCC[C@H]1C(=O)N[C@@H](CO)C(N)=O)C(C)C)[C@@H](C)CC [Compound 100] (H-[NMeY][Aib]EGTFISDYSI[Aib]LDR[Aib]K([AEEA-AEEA-γGlu-γGlu-C18 diacid])Q[Aib]NFVNWLLAQSPSSGAPPPS-NH2) | ≥ 60 | ≥ 15 | – | –
CC[C@H](C)[C@H](NC(=O)[C@H](Cc1ccccc1)NC(=O)[C@@H](NC(=O)CNC(=O)[C@H](CCC(=O)O)NC(=O)C(C)(C)NC(=O)[C@H](Cc1ccc(O)cc1)NC)[C@@H](C)O)C(=O)N[C@@H](CO)C(=O)N[C@@H](CC(=O)O)C(=O)N[C@@H](Cc1ccc(O)cc1)C(=O)N[C@@H](CO)C(=O)N[C@H](C(=O)NC(C)(C)C(=O)N[C@@H](CC(C)C)C(=O)N[C@@H](CC(=O)O)C(=O)N[C@@H](CCCNC(=N)N)C(=O)NC(C)(C)C(=O)N[C@@H](C)C(=O)N[C@@H](CCC(N)=O)C(=O)NC(C)(C)C(=O)N[C@@H](CCCCNC(=O)COCCOCCNC(=O)COCCOCCNC(=O)CC[C@H](NC(=O)CC[C@H](NC(=O)CCCCCCCCCCCCCCCCCCC(=O)O)C(=O)O)C(=O)O)C(=O)N[C@@H](Cc1ccccc1)C(=O)N[C@H](C(=O)N[C@@H](CC(N)=O)C(=O)N[C@@H](Cc1c[nH]c2ccccc12)C(=O)N[C@@H](CC(C)C)C(=O)N[C@@H](CC(C)C)C(=O)N[C@@H](C)C(=O)N[C@@H](CCC(N)=O)C(=O)N[C@@H](CCCNC(=N)N)C(=O)N1CCC[C@H]1C(=O)N[C@@H](CO)C(=O)N[C@@H](CO)C(=O)NCC(=O)N[C@@H](C)C(=O)N1CCC[C@H]1C(=O)N1CCC[C@H]1C(=O)N1CCC[C@H]1C(=O)N[C@@H](CO)C(N)=O)C(C)C)[C@@H](C)CC [Compound 101] (H-[NMeY][Aib]EGTFISDYSI[Aib]LDR[Aib]AQ[Aib]K([AEEA-AEEA-γGlu-γGlu-C20 diacid])FVNWLLAQRPSSGAPPPS-NH2) | ≥ 60 | ≥ 15 | – | –
CC[C@H](C)[C@H](NC(=O)[C@H](Cc1ccccc1)NC(=O)[C@@H](NC(=O)CNC(=O)[C@H](CCC(=O)O)NC(=O)C(C)(C)NC(=O)[C@H](Cc1ccc(O)cc1)NC)[C@@H](C)O)C(=O)N[C@@H](CO)C(=O)N[C@@H](CC(=O)O)C(=O)N[C@@H](Cc1ccc(O)cc1)C(=O)N[C@@H](CO)C(=O)N[C@H](C(=O)NC(C)(C)C(=O)N[C@@H](CC(C)C)C(=O)N[C@@H](CC(=O)O)C(=O)N[C@@H](CCCNC(=N)N)C(=O)NC(C)(C)C(=O)N[C@@H](C)C(=O)N[C@@H](C)C(=O)NC(C)(C)C(=O)N[C@@H](CCCCNC(=O)COCCOCCNC(=O)COCCOCCNC(=O)CC[C@H](NC(=O)CC[C@H](NC(=O)CCCCCCCCCCCCCCCCC(=O)O)C(=O)O)C(=O)O)C(=O)N[C@@H](Cc1ccccc1)C(=O)N[C@H](C(=O)N[C@@H](CC(N)=O)C(=O)N[C@@H](Cc1c[nH]c2ccccc12)C(=O)N[C@@H](CC(C)C)C(=O)N[C@@H](CC(C)C)C(=O)N[C@@H](C)C(=O)N[C@@H](CCC(N)=O)C(=O)N[C@@H](CCCNC(=N)N)C(=O)N1CCC[C@H]1C(=O)N[C@@H](CO)C(=O)N[C@@H](CO)C(=O)NCC(=O)N[C@@H](C)C(=O)N1CCC[C@H]1C(=O)N1CCC[C@H]1C(=O)N1CCC[C@H]1C(=O)N[C@@H](CO)C(N)=O)C(C)C)[C@@H](C)CC [Compound 106] (H-[NMeY][Aib]EGTFISDYSI[Aib]LDR[Aib]AA[Aib]K([AEEA-AEEA-γGlu-γGlu-C18 diacid])FVNWLLAQRPSSGAPPPS-NH2) | ≥ 30 | ≥ 15 | – | –
CC[C@H](C)[C@H](NC(=O)[C@H](Cc1ccccc1)NC(=O)[C@@H](NC(=O)CNC(=O)[C@H](CCC(=O)O)NC(=O)C(C)(C)NC(=O)[C@H](Cc1ccc(O)cc1)NC)[C@@H](C)O)C(=O)N[C@@H](CO)C(=O)N[C@@H](CC(=O)O)C(=O)N[C@@H](Cc1ccc(O)cc1)C(=O)N[C@@H](CO)C(=O)N[C@H](C(=O)NC(C)(C)C(=O)N[C@@H](CC(C)C)C(=O)N[C@@H](CC(=O)O)C(=O)N[C@@H](CCCNC(=N)N)C(=O)NC(C)(C)C(=O)N[C@@H](C)C(=O)N[C@@H](C)C(=O)NC(C)(C)C(=O)N[C@@H](CCCCNC(=O)COCCOCCNC(=O)COCCOCCNC(=O)CC[C@H](NC(=O)CC[C@H](NC(=O)CCCCCCCCCCCCCCCCC(=O)O)C(=O)O)C(=O)O)C(=O)N[C@@H](Cc1ccccc1)C(=O)N[C@H](C(=O)N[C@@H](CC(N)=O)C(=O)N[C@@H](Cc1c[nH]c2ccccc12)C(=O)N[C@@H](CC(C)C)C(=O)N[C@@H](CC(C)C)C(=O)N[C@@H](C)C(=O)N[C@@H](CCC(N)=O)C(=O)N[C@@H](CO)C(=O)N1CCC[C@H]1C(=O)N[C@@H](CO)C(=O)N[C@@H](CO)C(=O)NCC(=O)N[C@@H](C)C(=O)N1CCC[C@H]1C(=O)N1CCC[C@H]1C(=O)N1CCC[C@H]1C(=O)N[C@@H](CO)C(N)=O)C(C)C)[C@@H](C)CC [Compound 107] (H-[NMeY][Aib]EGTFISDYSI[Aib]LDR[Aib]AA[Aib]K([AEEA-AEEA-γGlu-γGlu-C18 diacid])FVNWLLAQSPSSGAPPPS-NH2) | ≥ 60 | ≥ 15 | – | –
CC[C@H](C)[C@H](NC(=O)[C@H](Cc1ccccc1)NC(=O)[C@@H](NC(=O)CNC(=O)[C@H](CCC(=O)O)NC(=O)C(C)(C)NC(=O)[C@H](Cc1ccc(O)cc1)NC)[C@@H](C)O)C(=O)N[C@@H](CO)C(=O)N[C@@H](CC(=O)O)C(=O)N[C@@H](Cc1ccc(O)cc1)C(=O)N[C@@H](CO)C(=O)N[C@H](C(=O)NC(C)(C)C(=O)N[C@@H](CC(C)C)C(=O)N[C@@H](CC(=O)O)C(=O)N[C@@H](CCCNC(=N)N)C(=O)NC(C)(C)C(=O)N[C@@H](CCCCNC(=O)COCCOCCNC(=O)COCCOCCNC(=O)CC[C@H](NC(=O)CC[C@H](NC(=O)CCCCCCCCCCCCCCCCC(=O)O)C(=O)O)C(=O)O)C(=O)N[C@@H](C)C(=O)NC(C)(C)C(=O)N[C@@H](CC(N)=O)C(=O)N[C@@H](Cc1ccccc1)C(=O)N[C@H](C(=O)N[C@@H](CC(N)=O)C(=O)N[C@@H](Cc1c[nH]c2ccccc12)C(=O)N[C@@H](CC(C)C)C(=O)N[C@@H](CC(C)C)C(=O)N[C@@H](C)C(=O)N[C@@H](CCC(N)=O)C(=O)N[C@@H](CO)C(=O)N1CCC[C@H]1C(=O)N[C@@H](CO)C(=O)N[C@@H](CO)C(=O)NCC(=O)N[C@@H](C)C(=O)N1CCC[C@H]1C(=O)N1CCC[C@H]1C(=O)N1CCC[C@H]1C(=O)N[C@@H](CO)C(N)=O)C(C)C)[C@@H](C)CC [Compound 109] (H-[NMeY][Aib]EGTFISDYSI[Aib]LDR[Aib]K([AEEA-AEEA-γGlu-γGlu-C18 diacid])A[Aib]NFVNWLLAQSPSSGAPPPS-NH2) | ≥ 60 | ≥ 15 | – | –
CC[C@H](C)[C@H](NC(=O)[C@H](Cc1ccccc1)NC(=O)[C@@H](NC(=O)CNC(=O)[C@H](CCC(=O)O)NC(=O)C(C)(C)NC(=O)[C@H](Cc1ccc(O)cc1)NC)[C@@H](C)O)C(=O)N[C@@H](CO)C(=O)N[C@@H](CC(=O)O)C(=O)N[C@@H](Cc1ccc(O)cc1)C(=O)N[C@@H](CO)C(=O)N[C@H](C(=O)NC(C)(C)C(=O)N[C@@H](CC(C)C)C(=O)N[C@@H](CC(=O)O)C(=O)N[C@@H](CCCNC(=N)N)C(=O)NC(C)(C)C(=O)N[C@@H](C)C(=O)N[C@@H](CCC(N)=O)C(=O)NC(C)(C)C(=O)N[C@@H](CCCCNC(=O)COCCOCCNC(=O)COCCOCCNC(=O)CC[C@H](NC(=O)CC[C@H](NC(=O)CCCCCCCCCCCCCCCCC(=O)O)C(=O)O)C(=O)O)C(=O)N[C@@H](Cc1ccccc1)C(=O)N[C@H](C(=O)N[C@@H](CCC(=O)O)C(=O)N[C@@H](Cc1c[nH]c2ccccc12)C(=O)N[C@@H](CC(C)C)C(=O)N[C@@H](CC(C)C)C(=O)N[C@@H](C)C(=O)N[C@@H](CCC(N)=O)C(=O)N[C@@H](CCCCN)C(=O)NCC(=O)O)C(C)C)[C@@H](C)CC [Compound 110] (H-[NMeY][Aib]EGTFISDYSI[Aib]LDR[Aib]AQ[Aib]K([AEEA-AEEA-γGlu-γGlu-C18 diacid])FVEWLLAQKG-OH) | – | – | ≥ 15 | ≥ 60
CC[C@H](C)[C@H](NC(=O)[C@H](CO)NC(=O)[C@H](Cc1ccc(O)cc1)NC(=O)[C@H](CC(=O)O)NC(=O)[C@H](CO)NC(=O)[C@@H](NC(=O)[C@H](Cc1ccccc1)NC(=O)[C@@H](NC(=O)CNC(=O)[C@H](CCC(=O)O)NC(=O)C(C)(C)NC(=O)[C@H](Cc1ccc(O)cc1)NC)[C@@H](C)O)[C@@H](C)CC)C(=O)N[C@@H](C)C(=O)N[C@@H](CC(C)C)C(=O)N[C@@H](CC(=O)O)C(=O)N[C@@H](CCCNC(=N)N)C(=O)NC(C)(C)C(=O)N[C@@H](C)C(=O)N[C@@H](CCC(N)=O)C(=O)NC(C)(C)C(=O)N[C@@H](CCCCNC(=O)CNC(=O)CNC(=O)[C@@H]1CCCN1C(=O)[C@H](C)NC(=O)[C@@H]1CCCN1C(=O)[C@H](C)NC(=O)[C@@H]1CCCN1C(=O)CC[C@H](NC(=O)CCCCCCCCCCCCCCCCC(=O)O)C(=O)O)C(=O)N[C@@H](Cc1ccccc1)C(=O)N[C@H](C(=O)N[C@@H](CC(N)=O)C(=O)N[C@@H](Cc1c[nH]c2ccccc12)C(=O)N[C@@H](CC(C)C)C(=O)N[C@@H](CC(C)C)C(=O)N[C@@H](C)C(=O)N[C@@H](CCC(N)=O)C(=O)N[C@@H](CO)C(=O)N1CCC[C@H]1C(=O)NCC(=O)O)C(C)C [Compound 117] (I: H-[NMeY][Aib]EGTFISDYSIALDR[Aib]AQ[Aib]KFVNWLLAQSPG-OH / II: {C18 diacid-γGlu}-PAPAPGG; amide I:21-II:C) | – | – | ≥ 15 | ≥ 30

Source: patent US20230143604A1, “QW DOSING OF GIP RECEPTOR AGONIST PEPTIDE COMPOUNDS AND USES THEREOF” (TAKEDA PHARMACEUTICAL COMPANY LIMITED, priority 2020, published 2023)
